Reference: US10632127B2, “Targeted notch pathway inhibitors” (Hoffmann-La Roche Inc., priority 2015, dated 2020)
Values belong to the molecule of their own block, whether it stands above or below them.

Test system: EC219 cells
Experiment: Extracellular release of the γ-secretase inhibitor from prodrugs by EC219 endothelial cells
Assay type: in vitro ADME, rat
Conditions: HEK293, 215/F2, HK2 and EC219 cells, 20 μM in PBS, 19 h
Procedure: FIG. 2A. Extracellular release of amine-SecrI (11a) metabolites for α-Glu- and γ-Glu-secretase inhibitor prodrugs. The prodrugs were added to the cells for 19 h, then the supernatants were harvested and analyzed for SecrI (8), amine-SecrI (11a), the prodrugs 13a, 13b, 15a, 15b and (for 13a, 15a) also the correponding deacetylated metabolites.
Cpd added: 20 μM in PBS, 19 h incubation. SecrI (8) is stable when added to cells for 19 h; free SecrI (8) was never detected from any prodrug.
The preparation and characterization of rat brain-derived EC219 endothelial cells have been described in Juillerat-Jeanneret, L. et al. In Vitro Cell. Dev. Biol. 1992, 28A, 537-543. These cells express high levels of APA and γ-GT activities and can be used for determining kinetics in living cells, and were chosen as APA- and γ-GT-positive representative cell models. EC219 cells were grown in DMEM medium containing 1 g/l glucose, 10% heat-inactivated fetal calf serum (FCS, EuroClone, UK) supplemented with 100 U/mL penicillin and 100 μg/mL streptomycin (P/S) on uncoated cell culture plastic ware. The HEK293 and HK2 human kidney cells are available from the ATCC (American Tissue Culture Collection, Manassas, Va., USA). HEK293 cells were grown on uncoated cell culture plastic ware in Iscove modified Dulbecco medium (IMDM, Life Technologies) containing 10% FCS and P/S. HK2 cells were grown on uncoated cell culture plastic ware in DMEM/F-12 GlutaMAX medium (Gibco) containing 5% FCS, P/S, 1% ITS (1.0 mg/ml bovine insulin, 0.55 mg/ml human transferrin and 0.5 μg/ml sodium selenite, Sigma-Aldrich) and 5 ng/ml hydrocortisone. […] Then 75 μl of supernatant from each well was removed and the luciferase activity was determined by adding 25 μl of Steady-Glo luciferase assay reagent (Promega).
A first screen of the different γ-secretase prodrugs was performed in vitro to determine the cleavage rate of each compound and ex-vivo in mouse kidney tissues. Extracellular release of the γ-secretase inhibitor from prodrugs by human kidney cells (HEK293, HEK293-derived Notch-reporter 215/F2 cells28,39 and HK2 cells) as well as the rat brain-derived EC219 endothelial cells which express very high levels of APA and γ-GT activities were evaluated for liberating active inhibitors SecrI (8) or amine-SecrI (11a) (FIG. 2A).
All samples were analyzed using protein precipitation followed by LC-MS/MS analysis. […] One μL of the supernatant was analyzed by LC/MS. […]

Structure (SMILES): C[C@H]1Oc2ccc(F)cc2N(CCO)C(=O)[C@H]1NC(=O)[C@@](C)(O)C(=O)NCC(F)(F)C(F)(F)F [Compound 8, N-[(6R,7S)-2-Fluoro-9-(2-hydroxy-ethyl)-6-methyl-8-oxo-6,7,8,9-tetrahydro-5-oxa-9-aza-benzocyclohepten-7-yl]-2-(S)-hydroxy-2-methyl-N′-(2,2,3,3,3-pentafluoro-propyl)-malonamide]
stability when added to cells: stable

Structure (SMILES): CC(=O)N[C@@H](CCC(=O)NCCNC(=O)OCCN1C(=O)[C@@H](NC(=O)[C@@](C)(O)C(=O)NCC(F)(F)C(F)(F)F)[C@@H](C)Oc2ccc(F)cc21)C(=O)O [Compound 13a, (S)-2-acetamido-5-(2-((2-((2R,3S)-7-fluoro-3-((S)-2-hydroxy-2-methyl-3-oxo-3-(2,2,3,3,3-pentafluoropropylamino)propanamido)-2-methyl-4-oxo-3,4-dihydrobenzo[b][1,4]oxazepin-5(2H)-yl)ethoxy)carbonylamino)ethylamino)-5-oxopentanoic acid]
hydrolysis by γ-GT: not hydrolyzed by γ-GT

substrate for APA: not a substrate for this enzyme
Structure (SMILES): CC(=O)N[C@@H](CCC(=O)O)C(=O)NCCNC(=O)OCCN1C(=O)[C@@H](NC(=O)[C@@](C)(O)C(=O)NCC(F)(F)C(F)(F)F)[C@@H](C)Oc2ccc(F)cc21 [Compound 15a, (S)-4-acetamido-5-(2-((2-((2R,3S)-7-fluoro-3-((S)-2-hydroxy-2-methyl-3-oxo-3-(2,2,3,3,3-pentafluoropropylamino)propanamido)-2-methyl-4-oxo-3,4-dihydrobenzo[b][1,4]oxazepin-5(2H)-yl)ethoxy)carbonylamino)ethylamino)-5-oxopentanoic acid]
